From patent US5663207A, “Gem-dichlorocyclopropanes as antitumor agents” (priority 1995, dated 1997)
Where two headings read alike, the source gives them in different places.

Tests used:
[1] = molecular target: T1, estrogen receptor (Rattus norvegicus, UniProt P06211); assay: Receptor binding assay: displacement of [3H]-estradiol from rat uterine cytosol; set-up: species or system rat (Sprague-Dawley); conditions: for [3H]-estradiol displacement curve (in words): rat uterine cytosolic estrogen receptor; for RBA (relative binding affinity): relative to estradiol = 100%
T1 construct: ovariectomized rat uterine cytosolic estrogen receptor preparation; from tissue; host or cells: uterine cytosol of ovariectomized Sprague-Dawley rats (immature rats from Sasco are named as uterus source, mature ovariectomized rats)
T1 sequence (P06211 1-600): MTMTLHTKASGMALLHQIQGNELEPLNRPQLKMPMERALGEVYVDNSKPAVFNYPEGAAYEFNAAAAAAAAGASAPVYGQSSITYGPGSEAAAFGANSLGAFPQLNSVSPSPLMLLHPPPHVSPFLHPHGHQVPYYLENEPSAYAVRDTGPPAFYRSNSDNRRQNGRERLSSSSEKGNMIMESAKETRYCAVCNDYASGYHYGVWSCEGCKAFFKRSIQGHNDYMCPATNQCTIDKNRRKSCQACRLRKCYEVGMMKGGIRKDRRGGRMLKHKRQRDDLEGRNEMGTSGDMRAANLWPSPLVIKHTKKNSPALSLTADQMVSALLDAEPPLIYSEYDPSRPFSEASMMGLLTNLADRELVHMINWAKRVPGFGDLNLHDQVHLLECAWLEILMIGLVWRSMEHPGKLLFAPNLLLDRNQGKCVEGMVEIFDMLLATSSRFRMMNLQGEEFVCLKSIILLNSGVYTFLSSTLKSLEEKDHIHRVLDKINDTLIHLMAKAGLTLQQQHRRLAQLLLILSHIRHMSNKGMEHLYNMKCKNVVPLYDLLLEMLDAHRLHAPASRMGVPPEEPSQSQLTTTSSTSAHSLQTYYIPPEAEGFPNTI
Source text: (§1) The biological evaluation of the test compounds consisted of the in vitro rat cytosolic estradiol receptor binding assay, the in vivo immature mouse uterotrophic (estrogenic) and antiuterotrophic (antiestrogenic) assays, and the in vitro suppression of the proliferation of the ER positive MCF-7 human breast cancer cell line. Estradiol (pure agonist), TAM (agonist in mice and antagonist in MCF-7), MER 25 (pure antagonist) and Analog II (antagonist in mice) were used in the assay as standards.
(§2) Vital-free immature female Swiss-Webster mice were obtained at 17-19 days of age from Sasco weighing 8-10 g, and were used in the uterotrophic and antiuterotrophic assays. Immature female Sprague-Dawley rats, obtained at 17-19 days of age from Sasco, weighing 28-33 g, were used as sources of uteri for the estradiol receptor binding assay. Animals were housed in wire topped polycarbonate cages at six animals per cage, with the environment controlled at 25° C. and a 12 h light/dark cycle. The animals received a diet of Wayne Lab Blox rodent chow and tap water ad libitum.
The RBAs of the test compounds were determined by the displacement of [^3 H]-estradiol in vitro, as described previously (DAY, B. W., […], R. A., JAIN, P., PENTO, J. T., MOUSISSIAN, G. K. AND MEYER, K. L. (1991), "Synthesis and biological evaluation of a series of 1,1-dichloro-2,2,3-triarylcyclopropanes as pure antiestrogens", Journal of Medicinal Chemistry, 34, 842; KORENMAN, S. G. (1969), "Comparative binding affinity of estrogens and its relation to estrogenic potency", Steroid, 13, 163). Mature female Sprague-Dawley rats were ovariectomized at least two weeks prior to the receptor binding experiment. Each test compound was assayed at three concentrations in duplicate over a range of 10^-3 -10^-5 M and 10^-6 -10^-8 M for the estradiol standard. The non-specific binding was determined by a parallel incubation of each compound with the addition of diethylstilbestrol to give a final concentration of 2×10^-5 M DES which was sufficient to saturate all the estrogen receptors present in the cytosolic fraction. Specific displacement for each compound was determined by subtraction of nonspecific displacement from total displacement. The [^3 H]-estradioldisplacement curve for each test compound was determined by linear repression analysis and plotted graphically. The relative binding affinity for each compound was calculated (BLISS, C.I. (1967), "The statistics in biology", McGraw Hill, Inc: New York).
^a Determined by competitive radiometric binding assay with rat
uterine cytosol as a source of receptor, [^3 H]estradiol as tracer,
and dextrancoated charcoal as absorbant for free ligand.
^c Binding affinities are expressed relative to that of estradiol =
100% (RBA = relative binding affinity) and are the average of duplicate
determinations minus nonspecific binding.
The relative binding affinities (RBAs), as determined by the competitive radiometric binding assay and measured by [^3 H]-estradiol displacement from the ovariectomized rat uterine cytosolic estrogen receptor preparation, after subtracting non-specific receptor binding, were calculated for all of the synthesized target compounds, TAM, MER 25, Analog II, and estradiol. The displacement curves were plotted as percent receptor-bound [^3 H]-estrodiol versus concentration of test compounds (not shown) and the receptor binding affinity of each compound is presented in Table II.

[2] = tested on: MCF-7 human breast cancer cells; assay: In vitro MCF-7 human breast cancer cell growth inhibition assay; type: cell-based; conditions: for inhibition at 1 µM: Homo sapiens
Source text: as §1
MCF-7 (estrogen-receptor positive) human breast cancer cells (obtained from the Michigan Cancer Foundation, Detroit, Mich.) were grown at 37° C. in 75 cm^2 tissue culture (T-75) flasks, as monolayer cultures in RPMI 1640 phenol red-free media supplemented with 2 mM L-glutamine, gentamicin (50 μg/mL), penicillin (100 units/mL), streptomycin (100 μg/mL ) and calf serum (5%). Cultures were grown in an incubator 37° C. in a humid 5% CO2 atmosphere, and fed on alternate days. Expotential growth was maintained by subculturing at eight day intervals when the cells per T-75 flask reached 10 to 12×10^6 cells. Cells were trypsinized, washed and plated in multiwell plates at a density of 5×10^4 cells/well in 3 mL of RPMI 1640 media. The cells were allowed to attach and were in logarithmic growth when the test compounds were added. The test compounds (10^-6 M) in the presence or absence of a 10-fold lower dose of estradiol were dissolved in a polyethylene glycol 400: ethanol (55:45) mixture and added in the culture media in duplicate. Control samples received vehicle alone at the same concentration used in the treatment groups. The final concentration of the vehicle mixture was 0.1% of the incubation media. Cell growth was measured on alternate days using the hemocytometric trypan blue exclusion method. Percent inhibition of MCF-7 cells was calculated as the ratio of the control mean cell count per well minus the treatment group mean cell count per well to the control mean cell count per well, multiplied by 100.
^b % MCF7 inhibition was calculated as follows: […]
Thirteen compounds, Analog II, TAM, and MER 25 were tested for their antiproliferative activity in the MCF-7 human breast cancer cell line (Table II). Compounds were tested at a concentration of 10^-6 M in the presence or absence of 10^-7 M estradiol to assess their ability to alter the growth of the calls (Table II). The 10^-6 M concentration was selected since it was reported that the inhibition of the MCF-7 cells by antiestrogens and TAM occurred either at that concentration or less, and were both selective and estrogen receptor specific. Concentrations of antiestrogens greater than 5×10^-6 M were reported to have nonspecific cytotoxic effects (BRIAND, P. AND […], A. E. (1984), "Effect of estrogen and antiestrogen on the human breast cancer cell line MCF-7 adapted to growth at low serum concentration", Cancer Research, 44, 1114).

[3] = tested on: Immature Swiss-Webster female mice (uterine weight); assay: Uterotrophic assay for estrogenic activity in immature mice; type: in vivo, mouse (Swiss-Webster); conditions: for uterine weight response (estrogenic activity, in words): doses of 5, 25 and 100 μg (total dose)
Source text: The biological evaluation of the test compounds consisted of the in vitro rat cytosolic estradiol receptor binding assay, the in vivo immature mouse uterotrophic (estrogenic) and antiuterotrophic (antiestrogenic) assays, and the in vitro suppression of the proliferation of the ER positive MCF-7 human breast cancer cell line.
as §2
Immature Swiss-Webster female mice (8-15 g) at 17-19 days of age were used. Estradiol was used in the dosage range of […] (total dose) as the assay standard. Each cyclopropyl analogue was examined at doses of 5, 25, and 100 μg (total dose). […] Estrogenic activity was measured as an increase in uterine weight produced by each test compound.

[4] = MCF7, 10^-6 M, versus control mean cell count, read-out: MCF-7 Inhibition
[5] = MCF7, 10^-6 M, printed as dash with footnote g, read-out: MCF-7 Inhibition
[6] = retested at 100, 250, and 500 μg
[7] = average of duplicate determinations minus nonspecific binding
[8] = MCF7, read-out: MCF-7 Inhibition

RBA ranking (in words) ([1]; among the compounds tested)	SMILES	[3H]-estradiol displacement curve (in words) [1]	RBA (relative binding affinity) ([1]; given as dash with footnote e)	effect on MCF-7 cell growth (in words) ([2]; 10^-6 M)	inhibition at 1 µM [2, 4] [%]	uterine weight response (estrogenic activity, in words) [3]	inhibition at 1 µM [2, 5] [%]	uterotrophic response on retest (in words) [3, 6]	RBA (relative binding affinity) [1, 7] [%]	inhibition at 1 µM [2, 8] [%]	uterotrophic response on retest (in words) ([3]; retested at 25, 100, and 250 μg)
lowest RBA	COc1ccc([C@H]2[C@@H](c3ccccc3)C2(Cl)Cl)cc1 (relative stereo) [Compound 8, 1,1-Dichloro-cis-2-(p-methoxyphenyl)-3-phenylcyclopropane]	dose-dependent displacement curves with shallower slopes than their acetoxy and phenolic analogues	--^e (Less than 0.01%.)	inhibited cell growth	25.3	well below the control group					
	COc1ccc([C@H]2[C@H](c3ccccc3)C2(Cl)Cl)cc1 (relative stereo) [Compound 16, 1,1-Dichloro-trans-2-(p-methoxyphenyl)-3-phenylcyclopropane]	dose-dependent displacement curves with shallower slopes than their acetoxy and phenolic analogues	--^e (Less than 0.01%.)	did not		slight increase in uterine weight at doses of 25 and 100 μg	< 10	no significant uterotrophic responses			
	CC(=O)Oc1ccc([C@H]2[C@H](c3ccccc3)C2(Cl)Cl)cc1 (relative stereo) [Compound 18, 1,1-Dichloro-trans-2-(p-acetoxyphenyl)-3-phenylcyclopropane]			did not			< 10		0.25		
	COc1ccc([C@@H]2[C@H](c3ccc(OC)cc3)C2(Cl)Cl)cc1 [Compound 14, 1,1-Dichloro-cis-2,3-bis-(p-methoxyphenyl) cyclopropane]	dose-dependent displacement curves with shallower slopes than their acetoxy and phenolic analogues		inhibited cell growth	37				0.01		
	COc1ccc(C2(c3ccc(OC)cc3)CC2(Cl)Cl)cc1 [Compound 23, 1,1-Dichloro-2,2-bis-(p-methoxyphenyl)cyclopropane]	dose-dependent displacement curves with shallower slopes than their acetoxy and phenolic analogues	--^e (Less than 0.01%.)	inhibited cell growth		well below the control group				30	
	COc1ccc(C2(c3ccc(O)cc3)CC2(Cl)Cl)cc1 (stereo not shown) [Compound 24, 1,1-Dichloro-2-(p-methoxyphenyl)-2-(p-hydroxyphenyl)cyclopropane]			only 23 inhibited cell growth					0.02	< 10	
	Oc1ccc(C2(c3ccc(O)cc3)CC2(Cl)Cl)cc1 [Compound 25, 1,1-Dichloro-2,2-bis-(p-hydroxyphenyl) cyclopropane]			only 23 inhibited cell growth		well below the control group			0.04	< 10	
	COc1ccc(C2(c3ccc(OC)cc3)C(Cl)(Cl)C23CCCCC3)cc1 [Compound 29, 1,1-Dichloro-2,2-bis-(p-methoxyphenyl)-spiro[2.5]octane]	dose-dependent displacement curves with shallower slopes than their acetoxy and phenolic analogues	--^e (Less than 0.01%.)	active inhibitors of cell growth		slight increase in uterine weight at doses of 25 and 100 μg		no significant uterotrophic responses		37	
	CC(=O)Oc1ccc(C2(c3ccc(OC(C)=O)cc3)C(Cl)(Cl)C23CCCCC3)cc1 [Compound 31, 1,1-Dichloro-2,2-bis-(p-acetoxyphenyl)-spiro[2.5]octane]					well below the control group			0.05	< 10	
	COc1ccc(C2(c3ccc(OC)cc3)C(c3ccccc3)C2(Cl)Cl)cc1 (stereo not shown) [Compound 35, 1,1-Dichloro-2,2-bis-(p-methoxyphenyl)-3-phenylcyclopropane]	dose-dependent displacement curves with shallower slopes than their acetoxy and phenolic analogues	--^e (Less than 0.01%.)	did not alter cell growth		slight increase in uterine weight at doses of 25 and 100 μg				< 10	no significant uterotrophic responses
